Measured values reported in patent publication US8822482B2, “Icotinib hydrochloride, synthesis, crystalline forms, pharmaceutical compositions, and uses thereof” (Beta Pharma, Inc., priority 2008, dated 2014).
Structures can show the parent of a compound that is named as a salt.

What was measured:
[1] = Pharmacokinetic study of the different crystalline forms and the free base in rats; type: in vivo, Wistar rats; conditions: fasted Wistar rats, oral suspension, dose equivalent to 35 mg/kg Icotinib hydrochloride, plasma
Method: Drugs and reagents: Icotinib (free base) and Icotinib hydrochloride crystalline forms I, II, III, and IV were ground to fine particles. The material content (purity) was not less than 99.0%. Sodium carboxymethyl cellulose was medical supply graded. Experimental animals: Wistar rats, male and female, 150-220 g each. Pharmaceutical preparation: Weigh the appropriate amount of each substance and add sodium carboxymethyl cellulose to 0.5%. Prepare a suspension at a final concentration of 3.5 mg/mL in water. Administration and sample collection: Each suspension was administered orally to fasted Wistar rats at a dose equivalent to 35 mg/kg Icotinib hydrochloride in a dose volume of 10 ml/kg. […] After purification, samples were analyzed by high performance liquid chromatography. The chromatographic conditions utilized C18-silane bonded silica as stationary phase, 0.02 mol/L of sodium dihydrogen phosphate in acetonitrile (40:60, using sodium hydroxide solution to adjust pH to 5.0) as the mobile phase and a detection wavelength of 334 nm.

[2] = test system: human A431 (human epidermoid carcinoma cell line) xenograft tumor; assay: Tumor inhibition on human A431 xenograft in nude mice; type: in vivo, BALB/C nude mice
Description: This was a preliminary study to compare Icotinib hydrochloride Crystalline Form I with erlotinib hydrochloride on inhibition of human A431 (human epidermoid carcinoma cell line) xenograft tumor.
Methods: The high EGFR-expressing human A431 (human epidermoid carcinoma cell line) cell line was selected for the xenograft study.
Tumor transplantation method: A431 human epidermoid cancer cells were inoculated subcutaneously in the right armpit of BALB/C nude mice to generate tumor nodules. These nodules were harvested, cut into 6 mm^3 blocks for routine inoculation and implanted into each mouse for the study. When tumors reached approximately 20 mm^3 in size (6-7 days), the animals were randomly divided into 4 groups of 6-9 animals/each group and body weights were recorded. The groups consisted of a control group (no drug treatment), an erlotinib hydrochloride treatment group (200 mg/kg) and high and low dose Icotinib hydrochloride Crystalline Form I treatment groups (200 and 50 mg/kg). Drugs were administered by oral gavage once daily; dosing frequency depended on the individual case for tumor growth. Tumor volume [tumor volume (V)=tumor size (L)×short diameter of tumor (S)^2/2] was measured using calipers once every 3 days. The animals were sacrificed 24-hour after the last drug administration and weighed. The tumor was removed and weighed to accurately calculate the tumor size. All group data was analyzed using the t test. If the p value was <0.05, it was considered to be statistically significant. Efficacy determination: tumor inhibition rate=[1−treatment group mean tumor weight (T)/control group mean tumor weight (C)]×100%

SMILES | The area under the concentration-time curve (0-infinity) [1] | The area under the concentration-time curve (0-t) [1] | body weight and appearance at experiment termination ([2]; A431 xenograft nude mice) | tumor inhibition rate ([2]; A431 xenograft, 200 mg/kg oral gavage once daily (later reduced to 100 mg/kg)) | animals died ([2]; after 5 days at 200 mg/kg)
C#Cc1cccc(Nc2ncnc3cc4c(cc23)OCCOCCOCCO4)c1 [Free base, 4-[(3-ethynyl-phenyl)amino]-6,7-benzo-12-crown-quinazoline, reference compound] | 29.36 | 28.83 | – | – | –
C#Cc1cccc(Nc2ncnc3cc(OCCOC)c(OCCOC)cc23)c1 [erlotinib, Erlotinib Hydrochloride, reference compound] | – | – | lost weight and appeared sluggish | 77.6% | 3 of 8
